Reference: patent US20110212909A1, “Use of Ginsenoside Compound K in the Preparation of a Medicament for the Prevention and Treatment of Atherosclerosis” (priority 2008, published 2011)
Marks after values point to notes of the source that are not given here.

Assays:
ABCA1 mRNA = assay: Real-time quantitative PCR of ABCA1 mRNA in foam cells; assay type: cell-based; conditions: 25 μM, rat foam cells
Protocol: FIG. 4 provides effects of a ginsenoside compound K (C-K, 25 μM) and pyrrolidine dithiocarbamate (PDTC, 25 μM) on the foam cell ABCA1 mRNA expression. a: P<0.05, vs foam cell group. PDTC (25 μM) C-K (25 μM) (n=5).
(1) Material and reagents (the same as Examples 2).
(2) real-time quantitative PCR analysis (a reference method: Zhang Yiguan, Li Xiaohui, Fan Jishan, Zhang Haigang, Li Shuhui, Liao Wenqiang, Pang Yan, Jia Yi. Total panax notoginsenosides suppress atherosclerosis formation in rats by means of antiinflammatory and blood fat regulating action. Progress in Modern Biomedicine. 2007, 27 (11): 1601-1607).
Data was expressed as x±s, variance analysis were carried out between groups by SPSS 13.0 software.

apo E−/− mouse = assay: Blood fat assay in serum of apo E−/− mice on Western Diet; assay type: in vivo; conditions: for HDL-C in serum / LDL-C in serum / TC in serum / TC-HDL/HDL / TG in serum: 15 weeks
Protocol: 80 healthy clean grade C57BL/6J apo E^−/^− mice of 10 weeks old, wherein male and female mice were fifty-fifty, weight 20-22 g, were breed and divided into individual cage in sterile laminar flow rack, allowing mice to freely drink water and get food. Mice were raised for 30 weeks by “Western Diet” (routine mouse feed +0.15% cholesterol +21% fat) high fat feed (^60cobalt sterilization radiation treatment), with raising conditions being SPF grade, room temperature maintained at 24° C., relative humidity of 50%, and lighting time of 7: 30-19: 30. Animal house was sterilized by ultraviolet lamp once every two days, in order to maintain sterile environment of laminar flow rack (establishment of animal model of atherosclerosis refers to reference: Barish G D, Atkins A R, Downes M, Olson P, Chong L W, Nelson M, Zou Y H, Hwang H S, Kang H J, Curtiss L, Evans R M, Lee C H. PPARδ regulates multiple proinflammatory pathways to suppress atherosclerosis. Proc Natl Acad Sci, 2008, 105 (11): 4271-4276.).
5 mice of apo E^−/^− mice raised for 15 weeks were randomly selected and sacrificed, root of aorta of which was taken, and replication condition in AS model was observed by HE staining. The remaining mice were randomly divided into 5 groups as follows (n=15):
A. model group: vehicle; B. ginsenoside compound K low dose group: ginsenoside compound K 12.5 mg/kg/day; C. ginsenoside compound K middle dose group: ginsenoside compound K 25.0 mg/kg/day; D. ginsenoside compound K high dose group: ginsenoside compound K 50.0 mg/kg/day; E. simvastatin control group: simvastatin 10.0 mg/kg/day.
Above drugs were firstly solved in DMSO, then suspended in 0.5% carboxymethylcellulose solution, mixed homogeneously, and then were administered via gavage, once a day. Mice were weighted once a week, and ingestion amounts were recorded, and drug doses were adjusted according to weight, interfering for 15 weeks. All the animal were sacrificed in 30th week.
apo E^−/^− mouse serum sample: apo E^−/^− mice were interfered by drug for 15 weeks, then were fasted for 12 hours before sampling. Before being sacrificed, mice were anesthetized by 0.5-1.0 mL 1% Pentobarbital via abdominal cavity, and under sterile condition, 1.5 mL blood form their eye sockets venous plexus was sampled, and centrifugated at 2500 r/min for 10 minutes, and then serum was separated, and frozen and stored at −80° C., for determining blood fat concentrations and inflammatory markers in serum.
• blood fat assay: TC, TG, HDL-C, and LDL-C concentrations in serum were determined by applying Olympus Au2700 fully automatic biochemical appearance. • serum inflammatory markers assay: hs-CRP and sCD40L concentrations were determined by applying double antibody sandwich ELISA, in accordance with ELISA kit operating instruction (hs-CRP ELISA kit bought from Herrenberg company, Germany; sCD40L ELISA kit bought from Bender Medsystems company, Austria). • real-time quantitative PCR analysis was carried out on expression of CD36, perilipin, ABCA1, LXRα, MMP-9 and NF-κ B mRNA in apo E^−/^− mouse aorta (a reference method: Zhang Yiguan, Li Xiaohui, Fan Jishan, Zhang Haigang, Li Shuhui, Liao Wenqiang, Pang Yan, Jia Yi. Total panax notoginsenosides suppress atherosclerosis formation in rats by means of antiinflammatory and blood fat regulating action. Progress in Modern Biomedicine. 2007, 27 (11): 1601-1607)0 • morphology index image analysis: When slices were HE stained, under X40 fold ordinary light microscope, artery atherosclerosis plaque area of each incisal surface was determined by “Image Pro Plus 5.0” image analysis software. Plaque area (PA), vessel cross section area (CVA), lipid core area (LCA), and minimal fibrous cap thickness (mFCT) were measured, and corrected plaque area (plaque area/vessel cross section area, PA/CVA) and corrected lipid core area (lipid core area/plaque area, LCA/PA) were calculated, and average of 4 incisal surfaces was taken for each sample. […]

[1] = C-K high dose 50.0 mg/kg/day gavage
[2] = C-K middle dose 25.0 mg/kg/day gavage
[3] = simvastatin 10.0 mg/kg/day gavage

With CC(C)=CCC[C@](C)(OC1OC(CO)C(O)C(O)C1O)C1CC[C@]2(C)C1[C@H](O)CC1[C@@]3(C)CC[C@H](O)C(C)(C)C3CC[C@]12C (stereo partly drawn) [C-K, 20-O-β-D-glucopyranosyl 20-(S)-protopanaxadiol] the “expression of ABCA1 mRNA in foam cells compared with model group” value (ABCA1 mRNA) was “significantly up-regulated”, the “action in regulating blood fat compared with simvastatin” value (apo E−/− mouse; C-K 12.5-50.0 mg/kg/day vs simvastatin 10.0 mg/kg/day) was “not as good as that of simvastatin” and the HDL-C in serum (apo E−/− mouse; [1]) was 4.42 ± 1.06^a mmol/L. The LDL-C in serum (apo E−/− mouse; [1]) was 6.11 ± 1.18^a mmol/L, the TC in serum (apo E−/− mouse; [1]) was 20.48 ± 4.34^b mmol/L and the TC-HDL/HDL (apo E−/− mouse; [1]) was 3.63 ± 0.10^b. For the same molecule, the TG in serum (apo E−/− mouse; [1]) was 2.19 ± 0.51^b mmol/L, the TG in serum (apo E−/− mouse; C-K low dose 12.5 mg/kg/day gavage, model 2.65 ± 0.39) was 2.32 ± 0.41^a mmol/L and the HDL-C in serum (apo E−/− mouse; C-K low dose 12.5 mg/kg/day gavage, model 3.79 ± 1.17) was 4.08 ± 1.32^a mmol/L. The TC-HDL/HDL (apo E−/− mouse; C-K low dose 12.5 mg/kg/day gavage, model 5.24 ± 0.36) was 4.34 ± 0.16^a, the LDL-C in serum (apo E−/− mouse; C-K low dose 12.5 mg/kg/day gavage, model 6.99 ± 1.09) was 6.45 ± 1.30^a mmol/L and the TC in serum (apo E−/− mouse; C-K low dose 12.5 mg/kg/day gavage, model 23.59 ± 3.79) was 21.79 ± 4.53^a mmol/L. For the same molecule, the HDL-C in serum (apo E−/− mouse; [2]) was 4.12 ± 1.15^a mmol/L, the LDL-C in serum (apo E−/− mouse; [2]) was 6.34 ± 1.22^a mmol/L and the TC in serum (apo E−/− mouse; [2]) was 21.29 ± 4.44^a mmol/L. For the same molecule, the TC-HDL/HDL (apo E−/− mouse; [2]) was 4.17 ± 0.13^b and the TG in serum (apo E−/− mouse; [2]) was 2.28 ± 0.32^a mmol/L.

With CCC(C)(C)C(=O)O[C@H]1C[C@@H](C)C=C2C=C[C@H](C)[C@H](CC[C@@H]3C[C@@H](O)CC(=O)O3)[C@H]21 [simvastatin, reference compound] the HDL-C in serum (apo E−/− mouse; [3]) was 3.80 ± 1.12 mmol/L, the LDL-C in serum (apo E−/− mouse; [3]) was 1.73 ± 1.36^b mmol/L and the TC in serum (apo E−/− mouse; [3]) was 13.62 ± 4.49^b mmol/L. The TC-HDL/HDL (apo E−/− mouse; [3]) was 2.58 ± 0.18^b and the TG in serum (apo E−/− mouse; [3]) was 1.34 ± 0.46^b mmol/L.
